According to US20090035784A1 (priority 2004, published 2009):
“Also recorded” adds a separate entry of the source. Read-outs that look alike come from different tables or passages of the source.

Assays:
Type in all cases: cell-based
NPC1L1 [1] = target: T1, NPC1L1 (Homo sapiens, UniProt Q9UHC9, T1073A)
T1 construct: expressed in transfected cells; host or cells: Huh7-derived cells; the L1 3+ line (NPC1L1-overexpressing clone 3) is proposed for screening
T1 sequence (Q9UHC9 22-1359 T1073A): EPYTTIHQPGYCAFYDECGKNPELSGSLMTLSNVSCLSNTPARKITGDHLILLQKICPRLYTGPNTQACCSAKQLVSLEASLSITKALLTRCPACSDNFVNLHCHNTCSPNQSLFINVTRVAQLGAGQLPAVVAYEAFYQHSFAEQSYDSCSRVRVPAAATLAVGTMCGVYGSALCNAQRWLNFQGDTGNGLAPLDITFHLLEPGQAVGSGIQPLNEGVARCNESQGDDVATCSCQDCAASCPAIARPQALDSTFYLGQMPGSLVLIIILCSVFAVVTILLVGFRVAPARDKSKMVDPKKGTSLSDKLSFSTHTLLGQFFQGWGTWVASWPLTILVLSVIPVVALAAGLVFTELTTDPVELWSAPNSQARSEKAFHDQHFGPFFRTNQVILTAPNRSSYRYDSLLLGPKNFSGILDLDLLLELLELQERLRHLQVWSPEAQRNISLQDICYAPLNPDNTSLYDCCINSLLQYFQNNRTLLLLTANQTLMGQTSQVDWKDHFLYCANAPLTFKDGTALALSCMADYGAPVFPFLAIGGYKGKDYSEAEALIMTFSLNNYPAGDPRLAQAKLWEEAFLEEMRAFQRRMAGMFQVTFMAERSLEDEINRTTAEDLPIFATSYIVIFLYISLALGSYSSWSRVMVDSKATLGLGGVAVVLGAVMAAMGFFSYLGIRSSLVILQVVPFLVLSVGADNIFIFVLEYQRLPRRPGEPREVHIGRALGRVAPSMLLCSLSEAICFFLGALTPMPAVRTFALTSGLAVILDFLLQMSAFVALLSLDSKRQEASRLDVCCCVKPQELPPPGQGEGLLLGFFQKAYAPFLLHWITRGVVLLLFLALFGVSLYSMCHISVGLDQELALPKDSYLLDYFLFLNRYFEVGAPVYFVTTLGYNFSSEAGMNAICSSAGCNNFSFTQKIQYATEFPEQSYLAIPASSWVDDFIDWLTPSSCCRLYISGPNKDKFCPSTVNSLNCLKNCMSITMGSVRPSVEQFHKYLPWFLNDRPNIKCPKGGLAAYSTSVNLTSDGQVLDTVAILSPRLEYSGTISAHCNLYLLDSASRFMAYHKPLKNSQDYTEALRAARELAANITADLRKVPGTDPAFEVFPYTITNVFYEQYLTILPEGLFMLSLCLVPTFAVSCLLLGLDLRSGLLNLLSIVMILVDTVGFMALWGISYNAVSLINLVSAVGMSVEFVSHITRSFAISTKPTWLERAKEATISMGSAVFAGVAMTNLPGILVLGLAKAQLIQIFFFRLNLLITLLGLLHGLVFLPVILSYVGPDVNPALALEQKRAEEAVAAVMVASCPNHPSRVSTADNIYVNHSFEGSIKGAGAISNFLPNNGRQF

NPC1 = target: T2, NPC1 (Homo sapiens, UniProt O15118); assay: Lysosomal cholesterol storage in normal human fibroblasts treated with inhibitor; settings: normal human fibroblasts incubated overnight, fluorescent cholesterol probe, FIG. 6 and 7
T2 construct: endogenous in cells; host or cells: normal human fibroblasts
T2 sequence (O15118 23-1278): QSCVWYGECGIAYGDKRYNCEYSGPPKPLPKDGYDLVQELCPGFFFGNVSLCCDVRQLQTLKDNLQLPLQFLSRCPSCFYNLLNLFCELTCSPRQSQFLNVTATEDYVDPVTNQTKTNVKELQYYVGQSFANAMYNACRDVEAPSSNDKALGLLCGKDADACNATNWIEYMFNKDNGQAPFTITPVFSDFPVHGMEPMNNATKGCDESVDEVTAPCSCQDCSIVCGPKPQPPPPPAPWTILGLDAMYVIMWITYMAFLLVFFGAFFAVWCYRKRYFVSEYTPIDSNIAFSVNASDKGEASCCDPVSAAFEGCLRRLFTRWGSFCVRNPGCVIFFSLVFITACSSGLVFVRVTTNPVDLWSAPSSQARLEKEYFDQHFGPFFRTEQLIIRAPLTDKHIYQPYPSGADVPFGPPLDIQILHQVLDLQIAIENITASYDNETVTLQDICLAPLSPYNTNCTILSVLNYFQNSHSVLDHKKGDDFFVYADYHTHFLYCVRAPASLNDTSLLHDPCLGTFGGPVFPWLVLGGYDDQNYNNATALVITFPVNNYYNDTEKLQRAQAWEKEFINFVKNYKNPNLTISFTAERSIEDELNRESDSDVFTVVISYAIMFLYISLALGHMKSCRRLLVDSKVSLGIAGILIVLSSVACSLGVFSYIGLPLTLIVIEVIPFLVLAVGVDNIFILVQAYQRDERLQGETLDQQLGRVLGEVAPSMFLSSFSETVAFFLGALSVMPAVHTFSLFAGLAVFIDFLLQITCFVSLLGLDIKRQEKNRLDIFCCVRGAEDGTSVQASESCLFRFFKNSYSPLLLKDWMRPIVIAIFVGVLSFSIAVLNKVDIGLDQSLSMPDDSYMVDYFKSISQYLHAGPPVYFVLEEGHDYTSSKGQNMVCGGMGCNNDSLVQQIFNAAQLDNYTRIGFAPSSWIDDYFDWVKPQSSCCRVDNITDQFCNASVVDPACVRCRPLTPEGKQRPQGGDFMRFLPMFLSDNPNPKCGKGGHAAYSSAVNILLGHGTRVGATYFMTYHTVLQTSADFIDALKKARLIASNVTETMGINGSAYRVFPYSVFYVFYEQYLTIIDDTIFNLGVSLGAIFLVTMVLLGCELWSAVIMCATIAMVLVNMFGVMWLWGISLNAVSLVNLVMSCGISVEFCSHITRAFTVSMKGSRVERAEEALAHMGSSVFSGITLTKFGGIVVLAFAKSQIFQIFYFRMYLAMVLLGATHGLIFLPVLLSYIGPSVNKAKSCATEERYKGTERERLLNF

NPC1L1 [2] = target: T1, NPC1L1; remark: listed apart in the source

SMILES	identification as inhibitor of NPC1L1 (NPC1L1 [1])	signal of NPC1L1 promoter upregulation (inhibition of the NPC1L1 protein) (NPC1L1 [2])	further results
CC(=O)c1ccc(NC(=O)c2cccs2)cc1 [N-(4-acetylphenyl)-2-thiophenecarboxamide]	NPC1L1 inhibitors have been identified	–	–
CCCC(=O)C1(c2ccccc2)CCNCC1.Cl [#5, 4-butyryl-4-phenylpiperidine hydrochloride]	–	–	NPC1 inhibition seen as lysosomal cholesterol build-up (NPC1; hydrochloride): distinguishable lysosomes filled with cholesterol; NPC1 inhibition seen as lysosomal cholesterol build-up (NPC1; listed as 4-butyryl-4-phenylpiperidine, hydrochloride): NPC1 inhibitor
COc1ccccc1NC1=C(C)C(=O)CC1 [3-[(2-methoxyphenyl)amino]-2-methyl-2-cyclopenten-1-one]	NPC1L1 inhibitors have been identified	–	–
COc1ccc(NC2=C(C)C(=O)CC2)cc1 [3-[(4-methoxyphenyl)amino]-2-methyl-2-cyclopenten-1-one]	NPC1L1 inhibitors have been identified	–	–
CC1CCNCC1 [#2, 4-methylpiperidine]	–	–	NPC1 inhibition seen as lysosomal cholesterol build-up (NPC1): weaker NPC1 inhibitor
CCCCN1CCCCC1C(=O)Nc1c(C)cccc1C (stereo not shown) [#7, 1-Butyl-N(2,6-diemethylphenyl)2 piperidine carboxamide]	NPC1L1 inhibitors have been identified	positive signal	–
c1ccc2c(CN3CCNCC3)cccc2c1 [1-(1-naphthylmethyl)piperazine]	NPC1L1 inhibitors have been identified	–	–
CC(Nc1ccccc1O)=C1C(=O)CSC1=O [3 {1-[(2-hydroxyphenyl)amino]ethylidene}-2,4(3H, 5H)-thiophenedione]	NPC1L1 inhibitors have been identified	positive signal	–
Cl.N#CC1(c2ccccc2)CCNCC1 [#1, 4-Phenyl-4-piperidinecarbonitrile Hydrochloride]	–	positive signal	NPC1 inhibition seen as lysosomal cholesterol build-up (NPC1; hydrochloride): did not demonstrate any NPC1 inhibition; NPC1 inhibition seen as lysosomal cholesterol build-up (NPC1; listed as 4-cyano-4-phenylpiperidine, Hydrochloride): weaker NPC1 inhibitor; identification as inhibitor of NPC1L1 (NPC1L1 [1]; Hydrochloride): NPC1L1 inhibitors have been identified; also recorded: identified as an inhibitor of NPC1L1
O=C1[C@H](CC[C@H](O)c2ccc(F)cc2)[C@@H](c2ccc(O)cc2)N1c1ccc(F)cc1 [Ezetamibe, reference compound]	–	did not inhibit NPC1L1	–
CC(=O)C1=C(Nc2ccccc2C)CCC1=O [2-acetyl-3-[(2-methylphenyl)amino]-2-cyclopenten-1-one]	NPC1L1 inhibitors have been identified	positive signal	–
CC(Nc1ccccc1C)=C1C(=O)CSC1=O [3{1-[(2-methylphenyl)amino]ethylidene}-2,4(3H, 5H)-thiophenedione]	NPC1L1 inhibitors have been identified	–	–
